Source: ChEMBL document CHEMBL5506011, “Discovery of novel and selective farnesoid X receptor antagonists through structure-based virtual screening, preliminary structure-activity relationship study, and biological evaluation” (Eur J Med Chem, 2024)

Legend:
Type in all cases: organism-based
[1] = Toxicity in male C57BL/6 mouse assessed as total bile acid level in serum at 20 mg/kg, ip measured after 4 days; details: in vivo, 96 h, time 4 day
[2] = Toxicity in male C57BL/6 mouse assessed as total bile acid level in serum at 20 to 40 mg/kg, po measured after 4 days; details: in vivo, 96 h, dose 20-40 mg/kg, time 4 day
[3] = Toxicity in male C57BL/6 mouse assessed as alanine transaminase (ALT) level in serum at 20 mg/kg, ip measured after 4 days; details: in vivo, 96 h, time 4 day
[4] = Toxicity in male C57BL/6 mouse assessed as aspartate transaminase (AST) level in serum at 20 mg/kg, ip measured after 4 days; details: in vivo, 96 h, time 4 day
[5] = Toxicity in male C57BL/6 mouse assessed as aspartate transaminase (AST) level in serum at 20 to 40 mg/kg, po measured after 4 days; details: in vivo, 96 h, dose 20-40 mg/kg, time 4 day

Measured: Activity

Cc1ccc(C)c(OCCCC(C)(C)C(=O)NCC(=O)c2ccc(O)cc2)c1
Non-Toxic: all assays above
